Measurements published in publication PMC13086438 (PLOS Neglected Tropical Diseases, 2026).

Biological target: T1, recombinant human sphingosine kinase 1 (rhSphK1) (Homo sapiens, UniProt Q9NYA1)
T1 construct: gene SPHK1; full-length (1155 bp CDS), 6×His tag, ~50 kDa, E. coli
Experiment: Microscale thermophoresis (SphK2 inhibitor used as control)
Type: binding

T1 sequence (Q9NYA1 whole entry): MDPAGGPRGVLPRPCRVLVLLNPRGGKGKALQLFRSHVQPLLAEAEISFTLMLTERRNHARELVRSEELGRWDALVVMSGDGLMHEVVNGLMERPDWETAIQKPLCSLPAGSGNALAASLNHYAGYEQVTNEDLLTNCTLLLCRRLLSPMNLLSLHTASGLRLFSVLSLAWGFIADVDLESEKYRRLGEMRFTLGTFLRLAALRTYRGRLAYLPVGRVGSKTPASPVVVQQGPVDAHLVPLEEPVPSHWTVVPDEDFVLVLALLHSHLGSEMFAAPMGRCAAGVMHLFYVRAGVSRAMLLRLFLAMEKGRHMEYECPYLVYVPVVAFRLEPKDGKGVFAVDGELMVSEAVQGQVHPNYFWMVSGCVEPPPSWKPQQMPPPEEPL

For `O=C(NCc1ccncc1)C12CC3CC(C1)CC(c1ccc(Cl)cc1)(C3)C2` [ABC294640], the Kd was 70.6 µM.
